Converted amounts (≈) assume the structure as drawn. Where two headings read alike, the source gives them in different places.
Columns and labels:
HIV-1 = test: Antiviral activity upon delayed addition to HIV-1-infected MT-4 cells; format: cell-based; settings: for antiviral activity on delayed addition: addition delayed by 41 to 48 hours
Method: (§1) In order to evaluate the inhibitory effects against retrovirus-induced cytopathogenicity in MT-4cells, said cells (5×10^5 cells/ml) were suspended in fresh culture medium and infected with HIV-1, HIV-2 or SIOV at 100 times the cell culture infective dose-50 (CCID50) per ml cell suspension (1 CCID50 being the dose infective for 50% of the cell cultures). Then, 100 μl of the infected cell suspension were transferred to microplate wells, mixed with 100 μl of the appropriate dilutions of the test compounds, and further incubated at 37° C. After 5 days, the number of viable cells was determined in a blood cell-counting chamber by trypan blue staining for both virus-infected and mock-infected cell cultures.
Mt-4 cells were suspended in culture medium, infected with HIV-1 and brought into microplate wells as described above. […] After 5 days, the number of viable cells was determined and the EC50 and CC50 values for the test compounds were defined as described in example 1.

[1] = Partition coefficient (Pa) between 1-octanol and 10 mM potassium phosphate buffer; format: physicochemical; settings: 1-octanol / 10 mM potassium phosphate buffer, pH 7.5, 50 μM
Method: Partition of the test compounds between 1-octanol (Merck, Darmstadt, Germany) and 10 mM potassium phosphate buffer, pH, 7.5 (Merck), was measured as described in Balzarini et al., Biochem, Biophys. Res. Commun. 158: 413-422 (1989). Briefly, a 50 μM concentration of the test compound in potassium phosphate buffer was thoroughly mixed with an equal volume of 1-octanol for 30 min at room temperature. Then, the mixture was further equilibrated at room temperature and UV absorption was measured for the aqueous and alcoholic liquid phases. The partition coefficient (Pa) was calculated as the ratio of the compound concentration present in the 1-octanol phase to the compound concentration present in the aqueous phase.

[2] = AIDS patients; cited from earlier work
MT-4 cells [3] = test: Cytotoxicity for MT-4 cells depending on exposure time; format: cell-based
Method: The toxicity of test compounds upon a 2-hr incubation period was determined by exposing MT-4 cells (3.5×10^5 cells/ml) to 100, 20, 4, 0.8 or 0.16 μg/ml of the test compounds for 2 hours at 37° C. Subsequently the cells were washed with culture medium. The pretreated cells were seeded in microplate wells at 70×10^3 cells/200 μl-well and allowed to grow for 3 days at 37° C. Control cultures received similar concentrations of the test compounds during the whole incubation period. Then, cells were counted in a Coulter counter (Harpenden Hertz, England) and the CC50 values were determined for each compound.
Mt-4 cells were suspended in culture medium, infected with HIV-1 and brought into microplate wells as described above.

HIV-1 mutant strains = test: Resistance of HIV-1 strains selected against compounds 5, 6 and 7; format: cell-based
[4] = tested on: MT-4 cell protein synthesis; test: Incorporation of radiolabeled leucine into MT-4 cell protein; format: cell-based; settings: Homo sapiens, MT4, read-out: IC50, L-[4,5-3H]leucine incorporation
Description: (§2) The radiolabeled nucleosides [methyl-^3 H]dThd (specific radioactivity: 40 Ci/mmol), [5-^3 H]dUrd (specific radioactivity: 27 Ci/mmol), [5-^3 H]dCyc (specific radioactivity: 18.2 Ci/mmol) and the radiolabeled amino acid L-[4,5-^3 H]leucine (specific radioactivity: 52 Ci/mmol were derived from the Radiochemcial Centre (Amersham, England); [5-^3 H]Urd (specific radioactivity: 21 Ci/mmol) and [5-^3 H]Cyd (specific radioactivity: 21 Ci/mmol) and were obtained from Moravek Biochemicals Inc. (Brea, Calif.)
(§3) The incorporation of [methyl-^3 H]dThd, [5-^3 H]dUrd, [5-^3 H]dCyd, [5-^3 H]Urd, [5-^3 H]Cyd and L-[4,5-^3 H]1eu into TCA-insoluble MT-4 cell material was measured in wells of a 96-well microtiter plate (Falcon-3072, Becton-Dickinson, New Jersey). To each well were added 10^5 MT-4 cells, 0.25 μCi of the radiolabeled precursor and a given amount of test compound. The cells were allowed to proliferate for 20 to 24 hr at 37° C. in a humidified, CO2 -controlled atmosphere. At the end of this incubation period, the contents of the wells (200 μl) were brought onto 25-mm glass fiber filters (type A/E, Gelman Instrument Company, Ann Arbor, Mich.), and mounted on a Millipore 3025 sampling manifold apparatus. The filters were washed twice with 2 ml and 5 ml cold NaCl/Pi (phosphte-buffered saline), twice with 2 and 5 ml cold 10% trichloroacetic acid (TCA), twice with 5 and 7.5 ml cold 5% TCA, and twice with 1 ml cold ethanol.

MT-4 cell DNA synthesis = test: Incorporation of radiolabeled precursors into MT-4 cell DNA; format: cell-based; settings: Homo sapiens
Description: as §2, §3

MT-4 cells [5] = test: Cytotoxicity for mock-infected MT-4 cells; settings: at 100 μg/ml
Method: as §1

[6] = Cytotoxicity for mock-infected MT-4 cells; settings: human, mt-4 cells
Method: as §1

MT-4 cell RNA synthesis = test: Incorporation of radiolabeled precursors into MT-4 cell RNA; format: cell-based; settings: Homo sapiens
Description: as §2, §3

[7] = target: reverse transcriptase enzyme of the TSAO-resistant HIV-1 strains (HIV-1 M:B_HXB2R, UniProt P04585, E725K); format: binding; settings: Glu-138 to Lys

Compound	antiviral activity on delayed addition (HIV-1)	partition coefficient (Pa) ([1]; room temperature)	toxic side effects on long-term treatment [2]	cytostatic activity depending on exposure time (MT-4 cells [3]; data not shown)	amino acid change in reverse transcriptase of HIV-1 strains selected for resistance (HIV-1 mutant strains)	IC50 [4]	IC50 (MT-4 cell DNA synthesis; MT4, read-out: IC50, [5-3H]dCyd incorporation)	IC50 (MT-4 cell DNA synthesis; MT4, read-out: IC50, [5-3H]dUrd incorporation)	IC50 (MT-4 cell DNA synthesis; MT4, read-out: IC50, [methyl-3H]dThd incorporation)	decrease of antiviral activity on delayed addition (HIV-1; addition delayed by 17-24 hours, data not shown)	cytotoxicity to MT-4 cells (in words) (MT-4 cells [5])	CC50 at 120 h [6]	IC50 (MT-4 cell RNA synthesis; MT4, read-out: IC50, [5-3H]Cyd incorporation)	IC50 (MT-4 cell RNA synthesis; MT4, read-out: IC50, [5-3H]Urd incorporation)	presence in the n-octanol phase compared to the aqueous phase [1]	logD at 50 µM ([1]; room temperature)	toxicity for MT-4 cells depending on contact time (MT-4 cells [3]; time of contact with the cells varied)	affinity of mutated reverse transcriptase [7]
Cc1cn([C@H]2C[C@H](N=[N+]=[N-])[C@@H](CO)O2)c(=O)[nH]c1=O [AZT, 3'-Azido-3'-deoxythymidine, reference compound]	almost totally lost	1.12	bone marrow suppression	less cytostatic the shorter its exposure time to MT-4 cells														
Cc1cn([C@@H]2O[C@H](CO[Si](C)(C)C(C)(C)C)[C@@]3(OS(=O)(=O)C=C3N)[C@H]2O[Si](C)(C)C(C)(C)C)c(=O)[nH]c1=O [Compound 5, {1-[2', 5'-Bis-O-(tert-butyldimethylsilyl)-β-D-ribofuranosyl]thymine}-3'-spiro-5"-{4"-amino-1",2"-oxathiole-2", 2"-dioxide}]	almost totally lost				glutamic acid change at position 138 to lysine	11.6 µg/mL (≈ 19.7 µM)	115 µg/mL (≈ 195 µM)	9.1 µg/mL (≈ 15.4 µM)	13 µg/mL (≈ 22 µM)	10 fold	not cytotoxic	7.7 µg/mL (≈ 13.1 µM)	8 µg/mL (≈ 13.6 µM)	11 µg/mL (≈ 18.6 µM)	more than 95%	> 1.3	not affected by the time that the compound had remained in contact with the cells	
Cc1ccnc2c1NC(=O)c1cccnc1N2C1CC1 [Nevirapine, reference compound]																		not for other HIV-1-specific compounds

— patent publication US5527900A, “N3-alkyl-2',5'-0-silylated-3'-spiro-thymidine derivatives” (Stitching Rega VZW, priority 1991, dated 1996)
